Laboratory results from US8735425B2, “Tetrahydroisoquinoline derivative” (Daiichi Sankyo Company, Limited, priority 2008, dated 2014).

Target: T1, DGAT1 enzyme (Homo sapiens, UniProt O75907)
T1 construct: made in house
T1 sequence (O75907 1-488): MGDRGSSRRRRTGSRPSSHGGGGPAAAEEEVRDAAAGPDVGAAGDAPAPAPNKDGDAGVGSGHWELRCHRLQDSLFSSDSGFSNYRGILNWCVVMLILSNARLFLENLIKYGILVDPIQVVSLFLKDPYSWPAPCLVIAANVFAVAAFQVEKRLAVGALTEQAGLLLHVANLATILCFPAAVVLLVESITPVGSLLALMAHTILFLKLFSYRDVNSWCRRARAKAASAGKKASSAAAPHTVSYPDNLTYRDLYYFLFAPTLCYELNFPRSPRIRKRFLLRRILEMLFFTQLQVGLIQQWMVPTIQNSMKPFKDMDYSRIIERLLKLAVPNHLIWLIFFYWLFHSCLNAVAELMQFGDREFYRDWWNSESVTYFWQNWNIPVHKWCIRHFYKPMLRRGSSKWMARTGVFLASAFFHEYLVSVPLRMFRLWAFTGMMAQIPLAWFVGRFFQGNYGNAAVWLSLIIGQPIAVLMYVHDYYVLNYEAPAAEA
Assay: DGAT1 inhibitory activity test
Type: biochemical
Settings: test compound concentration of 0.05 μg/ml; read-out: Inhibitory Rate
Experimental: DGAT1 enzyme was prepared and stored according to the method described in US2007/0249620.
(2) DGAT1 Inhibitory Activity Test
A reaction solution having the following composition was incubated at room temperature (23° C.) for 30 minutes: 175 mM Tris-HCl (pH 8.0), 8 mM MgCl2, 1 mg/ml BSA, 0.3 mM 1,2-dioleoyl-sn-glycerol (10-fold concentration of EtOH solution, 10% added), 10 μM [^14C]-oleoyl-CoA (approximately 50 mCi/mmol), 0.5% Triton X-100, the DGAT1 enzyme (10 μg) obtained in Test Example 1(1), and a test compound or vehicle (DMSO/MeOH, 7:3 solution, 5% added), […] in total. A reaction stop solution ([…] consisting of isopropanol/1-heptane/water (80:20:2, v/v/v) was added to the reaction solution and stirred. Subsequently, water (30 μl) and 1-heptane (100 μl) were added thereto and stirred. The 1-heptane layer (50 μl) was spotted onto a TLC plate and developed with a developing solvent consisting of 1-hexane/diethyl ether/acetic acid (85:15:1, v/v/v). The radioactivity of the triglyceride fraction was quantified using BAS2000 Bio Image Analyzer (FUJIFILM) and compared with the control. The inhibitory activity of the test compound was calculated according to the formula shown below. In this context, the radioactivity at no reaction (0 minute incubation) was used as background. Inhibitory Rate=100−[(Radioactivity of sample supplemented with test compound)−(Background)]/[(Radioactivity of control)−(Background)]×100

Inhibition at 0.05 µg/mL, ≥ 50%:
O=C(C[C@H]1CC[C@H](OC(=O)N2CCc3cc(NC(=O)Nc4ccccc4F)ccc3C2)CC1)NC1(C(=O)O)CC1 [Example 37, trans-6-[3-(2-fluoro-phenyl)-ureido]-3,4-dihydro-1H-isoquinoline-2-carboxylic acid 4-[(1-carboxy-cyclopropylcarbamoyl)-methyl]-cyclohexyl ester]
O=C(O)C[C@H]1CC[C@H](OC(=O)N2CCc3cc(NC(=O)Nc4cncc(Cl)c4)ccc3C2)CC1 [Example 93, trans-6-[3-(5-chloro-pyridin-3-yl)-ureido]-3,4-dihydro-1H-isoquinoline-2-carboxylic acid 4-carboxymethyl-cyclohexyl ester]
CC(NC(=O)C[C@H]1CC[C@H](OC(=O)N2CCc3cc(NC(=O)Nc4ccccc4F)ccc3C2)CC1)C(=O)O (stereo partly drawn) [Example 36, trans-6-[3-(2-fluoro-phenyl)-ureido]-3,4-dihydro-1H-isoquinoline-2-carboxylic acid 4-[(1-carboxy-ethylcarbamoyl)-methyl]-cyclohexyl ester]
NC(=O)C[C@H]1CC[C@H](OC(=O)N2CCc3cc(NC(=O)Nc4ccccc4F)ccc3C2)CC1 [Example 18, trans-6-[3-(2-fluoro-phenyl)-ureido]-3,4-dihydro-1H-isoquinoline-2-carboxylic acid 4-carbamoylmethyl-cyclohexyl ester]
COc1ccc(NC(=O)Nc2ccc3c(c2)CCN(C(=O)O[C@H]2CC[C@H](CC(=O)O)CC2)C3)cc1 [Example 79, trans-6-[3-(4-methoxy-phenyl)-ureido]-3,4-dihydro-1H-isoquinoline-2-carboxylic acid 4-carboxymethyl-cyclohexyl ester]
C[S+]([O-])c1cccc(NC(=O)Nc2ccc3c(c2)CCN(C(=O)O[C@H]2CC[C@H](CC(=O)O)CC2)C3)c1 (stereo partly drawn) [Example 65, trans-6-[3-(3-methanesulfinyl-phenyl)-ureido]-3,4-dihydro-1H-isoquinoline-2-carboxylic acid 4-carboxymethyl-cyclohexyl ester]
O=C(O)C[C@H]1CC[C@@H](OC(=O)N2CCc3cc(NC(=O)Nc4ccccc4F)ccc3C2)CC1 [Example 3, cis-6-[3-(2-fluoro-phenyl)-ureido]-3,4-dihydro-1H-isoquinoline-2-carboxylic acid 4-carboxymethyl-cyclohexyl ester]
C[C@H]1C[C@@H](CC(=O)O)CC[C@H]1OC(=O)N1CCc2cc(NC(=O)Nc3ccccc3F)ccc2C1 (relative stereo) [Example 14, 6-[3-(2-fluoro-phenyl)-ureido]-3,4-dihydro-1H-isoquinoline-2-carboxylic acid c-4-carboxymethyl-c-2-methyl-r-1-cyclohexyl ester]
O=C(O)C[C@H]1CC[C@H](OC(=O)N2CCc3cc(NC(=O)Nc4cnccn4)ccc3C2)CC1 [Example 94, trans-6-(3-pyrazin-2-yl-ureido)-3,4-dihydro-1H-isoquinoline-2-carboxylic acid 4-carboxymethyl-cyclohexyl ester]
CNC(=O)C[C@H]1CC[C@H](OC(=O)N2CCc3cc(NC(=O)Nc4ccccc4F)ccc3C2)CC1 [Example 34, trans-6-[3-(2-fluoro-phenyl)-ureido]-3,4-dihydro-1H-isoquinoline-2-carboxylic acid 4-methylcarbamoylmethyl-cyclohexyl ester]
COc1cccc(NC(=O)Nc2ccc3c(c2)CCN(C(=O)C(C)C2CCC(CC(=O)O)CC2)C3)c1 (stereo not drawn) [Example 106, [4-(2-{6-[3-(3-methoxy-phenyl)-ureido]-3,4-dihydro-1H-isoquinolin-2-yl}-1-methyl-2-oxy-ethyl)-cyclohexyl]-acetic acid]
O=C(C[C@H]1CC[C@H](OC(=O)N2CCc3cc(NC(=O)Nc4ccccc4F)ccc3C2)CC1)Nc1nnn[nH]1 [Example 40, trans-6-[3-(2-fluoro-phenyl)-ureido]-3,4-dihydro-1H-isoquinoline-2-carboxylic acid 4-[(1H-tetrazol-5-ylcarbamoyl)-methyl]-cyclohexyl ester]
O=C(O)CNC(=O)C[C@H]1CC[C@H](OC(=O)N2CCc3cc(NC(=O)Nc4ccccc4F)ccc3C2)CC1 [Example 35, trans-6-[3-(2-fluoro-phenyl)-ureido]-3,4-dihydro-1H-isoquinoline-2-carboxylic acid 4-[(carboxymethyl-carbamoyl)-methyl]-cyclohexyl ester]
O=C(Nc1ccc2c(c1)CCN(C(=O)O[C@H]1CC[C@@H](C(=O)O)CC1)C2)Nc1ccccc1F [Example 9, cis-6-[3-(2-fluoro-phenyl)-ureido]-3,4-dihydro-1H-isoquinoline-2-carboxylic acid 4-carboxy-cyclohexyl ester]
O=C(Nc1ccc2c(c1)CCN(C(=O)O[C@H]1CC[C@H](Cc3nc(C(=O)O)co3)CC1)C2)Nc1ccccc1F [Example 39, trans-6-[3-(2-fluoro-phenyl)-ureido]-3,4-dihydro-1H-isoquinoline-2-carboxylic acid 4-(4-carboxy-oxazol-2-ylmethyl)-cyclohexyl ester]
O=C(Nc1ccc2c(c1)CCN(C(=O)O[C@H]1CC[C@H](Cc3cc(O)n[nH]3)CC1)C2)Nc1ccccc1F [Example 42, trans-6-[3-(2-fluoro-phenyl)-ureido]-3,4-dihydro-1H-isoquinoline-2-carboxylic acid 4-(5-hydroxy-2H-pyrazol-3-ylmethyl)-cyclohexyl ester]
O=C(Nc1ccc2c(c1)CCN(C(=O)O[C@H]1CC[C@H](CC(=O)N3CCCC3C(=O)O)CC1)C2)Nc1ccccc1F (stereo partly drawn) [Example 38, trans-6-[3-(2-fluoro-phenyl)-ureido]-3,4-dihydro-1H-isoquinoline-2-carboxylic acid 4-[2-(2-carboxy-pyrrolidin-1-yl)-2-oxo-ethyl]-cyclohexyl ester]
CC(C)(NC(=O)C[C@H]1CC[C@H](OC(=O)N2CCc3cc(NC(=O)Nc4ccccc4F)ccc3C2)CC1)C(=O)O [Example 19, trans-6-[3-(2-fluoro-phenyl)-ureido]-3,4-dihydro-1H-isoquinoline-2-carboxylic acid 4-[(1-carboxy-1-methyl-1-ethylcarbamoyl)-methyl]-cyclohexyl ester]
O=C(O)C[C@@H]1CC[C@H](OC(=O)N2CCc3cc(NC(=O)Nc4ccccc4F)ccc3C2)C1 (relative stereo) [Example 6, cis-6-[3-(2-fluoro-phenyl)-ureido]-3,4-dihydro-1H-isoquinoline-2-carboxylic acid 3-carboxymethyl-cyclopentyl ester]
O=C(O)C[C@H]1CC[C@H](OC(=O)N2CCc3cc(Nc4nc5ccccc5s4)ccc3C2)CC1 [Example 98, trans-6-(benzothiazol-2-ylamino)-3,4-dihydro-1H-isoquinoline-2-carboxylic acid 4-carboxymethyl-cyclohexyl ester]
CN(C)C(=O)C[C@H]1CC[C@H](OC(=O)N2CCc3cc(NC(=O)Nc4ccccc4F)ccc3C2)CC1 [Example 33, trans-6-[3-(2-fluoro-phenyl)-ureido]-3,4-dihydro-1H-isoquinoline-2-carboxylic acid 4-dimethylcarbamoylmethyl-cyclohexyl ester]
